These are literature values, as cited in patent US20030143271A1, “Drug mixture with enhanced dissolution rate” (priority 2002, published 2003).

In data set [1] the target is platelet cyclooxygenase-1 (Homo sapiens, UniProt P23219). The note with it: clinical relevance not clear.
Data set [2] concerns antiplatelet effects of the aspirin. The note with it: in combination with low-dose aspirin, healthy subjects.

Each structure is given as a SMILES string.

Sequence of platelet cyclooxygenase-1 (P23219 24-599): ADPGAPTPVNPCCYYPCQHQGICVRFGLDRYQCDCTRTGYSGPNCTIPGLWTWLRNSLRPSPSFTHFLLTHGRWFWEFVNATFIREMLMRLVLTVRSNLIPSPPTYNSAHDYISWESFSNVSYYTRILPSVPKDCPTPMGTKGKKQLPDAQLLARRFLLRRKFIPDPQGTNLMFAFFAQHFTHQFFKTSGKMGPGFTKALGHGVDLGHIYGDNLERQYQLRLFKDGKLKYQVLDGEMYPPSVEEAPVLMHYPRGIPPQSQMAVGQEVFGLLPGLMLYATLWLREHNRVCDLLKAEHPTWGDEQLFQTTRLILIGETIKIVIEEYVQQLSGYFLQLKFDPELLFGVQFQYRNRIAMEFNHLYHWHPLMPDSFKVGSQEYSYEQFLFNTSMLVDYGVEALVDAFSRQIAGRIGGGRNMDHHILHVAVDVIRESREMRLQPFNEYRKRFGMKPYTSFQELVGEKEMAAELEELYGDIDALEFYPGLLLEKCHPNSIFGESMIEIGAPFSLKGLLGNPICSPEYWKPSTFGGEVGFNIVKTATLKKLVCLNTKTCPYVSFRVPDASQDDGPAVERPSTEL

In the case of `CS(=O)(=O)c1ccc(C2=C(c3ccccc3)C(=O)OC2)cc1` [rofecoxib], the “effect on the antiplatelet activity of aspirin” value in data set [1] was “some antagonistic effect”. For the same compound, the “effect on antiplatelet effects of aspirin” value in data set [2] is “did not alter antiplatelet effects of the aspirin”.

For the compound `Cc1onc(-c2ccccc2)c1-c1ccc(S(N)(=O)=O)cc1` [valdecoxib], the “effect on the antiplatelet activity of aspirin” value in data set [1] is on record as “some antagonistic effect”.
